According to patent US20220267380A1, “Glycopeptides Increasing Lipid Synthesis” (TFCHEM, priority 2019, published 2022):

Test system: normal human dermal fibroblasts (NHDF)
Experiment: Gene expression in NHDF, full transcriptome analysis with Affymetrix U219 microarray
Assay type: cell-based
Details: NHDF, 10 mg/ml, 24 h
[1] = relative expression adjusted to detection limit (<20)

## N[C@@H](CCCCNCC(F)(F)[C@]1(O)O[C@H](CO)[C@H](O)[C@H](O)[C@H]1O)C(=O)O [Compound 3]
Vs control, Affymetrix probe set 11752670_a_at
  Fold change, FADS1: 3.55
Vs control, Affymetrix probe set 11753248_a_at
  Fold change, TPP1: 2.05
Vs control, Affymetrix probe set 11753439_a_at
  Fold change, GBA///GBAP1: 2.35
Vs control, Affymetrix probe set 11753440_x_at
  Fold change, GBA: 2.30
Vs control, Affymetrix probe set 11754819_x_at
  Fold change, GBA///GBAP1: 2.08
Vs control, Affymetrix probe set 11755123_x_at
  Fold change, LPCAT3: 2.13
Vs control, Affymetrix probe set 11755251_x_at
  Fold change, FADS1: 3.75
Vs control, Affymetrix probe set 11757008_a_at
  Fold change, LPCAT3: 2.39
Vs control, Affymetrix probe set 11757469_s_at
  Fold change, TPP1: 2.14
Vs control, Affymetrix probe set 11757575_x_at
  Fold change, HSD17B14: 2.92
Vs control, Affymetrix probe set 11762755_x_at
  Fold change, TM7SF2: 2.10
[1]
  REadj2, ACOT1///ACOT2: 462.96
  REadj2, APOD: 154.78
  REadj2, DHCR7: 1097.58
  REadj2, FADS2: 263.98
  REadj2, GBAP1: 186.37
  REadj2, HACD1: 674.65
  REadj2, HMGCS1: 1170.64
  REadj2, LRP8: 125.76
  REadj2, MVD: 534.91
  REadj2, NCOR1: 68.44
  REadj2, NEU1: 722.33
  REadj2, NPC1: 154.34
  REadj2, PHLDB2: 66.17
  REadj2, PHYH: 813.79
  REadj2, PLA2G15: 82.36
  REadj2, PLA2G16: 222.24
  REadj2, PRKAB2: 21.07
  REadj2, PTGDS: 1080.74
  REadj2, SOAT1: 393.50
  REadj2, SPHK1: 195.74
  REadj2, SREBF1: 312.15
  REadj2, TXNRD1: 1483.80
  REadj2, VAC14: 105.84
Relative expression adjusted to detection limit (<20), Affymetrix probe set 11715561_s_at
  REadj2, SCD: 634.95
Relative expression adjusted to detection limit (<20), Affymetrix probe set 11715562_x_at
  REadj2, SCD: 722.36
Relative expression adjusted to detection limit (<20), Affymetrix probe set 11715563_s_at
  REadj2, SCD: 558.17
Relative expression adjusted to detection limit (<20), Affymetrix probe set 11716292_a_at
  REadj2, G6PD: 348.08
Relative expression adjusted to detection limit (<20), Affymetrix probe set 11716293_x_at
  REadj2, G6PD: 239.53
Relative expression adjusted to detection limit (<20), Affymetrix probe set 11716338_a_at
  REadj2, INSIG1: 1101.68
Relative expression adjusted to detection limit (<20), Affymetrix probe set 11716339_a_at
  REadj2, INSIG1: 1249.89
Relative expression adjusted to detection limit (<20), Affymetrix probe set 11716533_a_at
  REadj2, PPT1: 249.91
Relative expression adjusted to detection limit (<20), Affymetrix probe set 11717859_a_at
  REadj2, EBP: 1025.83
Relative expression adjusted to detection limit (<20), Affymetrix probe set 11720588_a_at
  REadj2, HSD17B14: 154.64
Relative expression adjusted to detection limit (<20), Affymetrix probe set 11721046_a_at
  REadj2, SERINC2: 462.86
Relative expression adjusted to detection limit (<20), Affymetrix probe set 11726265_at
  REadj2, ME1: 1130.68
Relative expression adjusted to detection limit (<20), Affymetrix probe set 11736285_a_at
  REadj2, CHKA: 137.49
Relative expression adjusted to detection limit (<20), Affymetrix probe set 11736286_a_at
  REadj2, CHKA: 138.86
Relative expression adjusted to detection limit (<20), Affymetrix probe set 11740582_a_at
  REadj2, ASAH1: 1292.95
Relative expression adjusted to detection limit (<20), Affymetrix probe set 11742107_a_at
  REadj2, PPT1: 289.70
Relative expression adjusted to detection limit (<20), Affymetrix probe set 11743547_a_at
  REadj2, ASAH1: 1038.22
Relative expression adjusted to detection limit (<20), Affymetrix probe set 11744044_s_at
  REadj2, PCYT2: 239.50
Relative expression adjusted to detection limit (<20), Affymetrix probe set 11745459_a_at
  REadj2, FADS1: 1891.83
Relative expression adjusted to detection limit (<20), Affymetrix probe set 11746974_a_at
  REadj2, LDLR: 357.86
Relative expression adjusted to detection limit (<20), Affymetrix probe set 11747322_s_at
  REadj2, PCYT2: 216.32
Relative expression adjusted to detection limit (<20), Affymetrix probe set 11748045_x_at
  REadj2, LDLR: 380.34
Relative expression adjusted to detection limit (<20), Affymetrix probe set 11748053_x_at
  REadj2, SERINC2: 342.33
Relative expression adjusted to detection limit (<20), Affymetrix probe set 11748279_s_at
  REadj2, TM7SF2: 91.54
Relative expression adjusted to detection limit (<20), Affymetrix probe set 11749332_x_at
  REadj2, EBP: 907.86
Relative expression adjusted to detection limit (<20), Affymetrix probe set 11749343_a_at
  REadj2, ABHD4: 66.31
Relative expression adjusted to detection limit (<20), Affymetrix probe set 11749376_a_at
  REadj2, ABHD4: 69.48
Relative expression adjusted to detection limit (<20), Affymetrix probe set 11750913_a_at
  REadj2, ME1: 861.69
Relative expression adjusted to detection limit (<20), Affymetrix probe set 11750975_x_at
  REadj2, GBA: 250.68
Relative expression adjusted to detection limit (<20), Affymetrix probe set 11751086_x_at
  REadj2, GBA: 255.53
Relative expression adjusted to detection limit (<20), Affymetrix probe set 11751337_a_at
  REadj2, DHCR24: 191.39
Relative expression adjusted to detection limit (<20), Affymetrix probe set 11751338_x_at
  REadj2, DHCR24: 364.97
Relative expression adjusted to detection limit (<20), Affymetrix probe set 11752486_a_at
  REadj2, G6PD: 224.35
Relative expression adjusted to detection limit (<20), Affymetrix probe set 11752670_a_at
  REadj2, FADS1: 3012.88
Relative expression adjusted to detection limit (<20), Affymetrix probe set 11753440_x_at
  REadj2, GBA: 139.49
Relative expression adjusted to detection limit (<20), Affymetrix probe set 11755251_x_at
  REadj2, FADS1: 1908.34
Relative expression adjusted to detection limit (<20), Affymetrix probe set 11757575_x_at
  REadj2, HSD17B14: 89.08
Relative expression adjusted to detection limit (<20), Affymetrix probe set 11762755_x_at
  REadj2, TM7SF2: 61.24
